Source: patent US20050124021A1 (priority 2000, published 2005)
Entries after “also recorded” stand apart in the source; their conditions may differ.

Tests used:
[1] = test system: M. smegmatis strain 49; conditions: read-out: H2O2 IC50; cited from earlier work
[2] = test system: M. smegmatis strain 49
[3] = test system: M. smegmatis strain I64
[4] = test system: M. smegmatis strain 49::H37Rv A18; conditions: read-out: H2O2 IC50; cited from earlier work
[5] = test system: M. smegmatis mc^2155; conditions: read-out: H2O2 IC50
[6] = test system: M. smegmatis strain TN3
[7] = test system: M. smegmatis mc^2155; assay type: cell-based
[8] = test system: M. smegmatis chemical mutant 164; assay type: cell-based
[9] = test system: M. smegmatis mutant TN3; assay type: cell-based
[10] = target: T1, M. tuberculosis MshB (Rv1170) (Mycobacterium tuberculosis, UniProt P9WJN3); assay type: biochemical
[11] = target: T2, His-tagged MshB (Mycobacterium tuberculosis, UniProt P9WJN3); assay type: biochemical, M. tuberculosis
[12] = target: T1, M. tuberculosis MshB (Rv1170); assay type: biochemical; conditions: for Deacetylase Specific Activity: pH 7.4
[13] = target: T2, His-tagged MshB; assay type: biochemical, M. tuberculosis; remark: listed apart in the source
[14] = target: recombinant MshB (Rv1170) (Mycobacterium tuberculosis, UniProt P9WJN3); assay type: biochemical, M. tuberculosis
[15] = test system: M. smegmatis mutant 49; assay type: cell-based

T1 sequence (P9WJN3 whole entry, looked up): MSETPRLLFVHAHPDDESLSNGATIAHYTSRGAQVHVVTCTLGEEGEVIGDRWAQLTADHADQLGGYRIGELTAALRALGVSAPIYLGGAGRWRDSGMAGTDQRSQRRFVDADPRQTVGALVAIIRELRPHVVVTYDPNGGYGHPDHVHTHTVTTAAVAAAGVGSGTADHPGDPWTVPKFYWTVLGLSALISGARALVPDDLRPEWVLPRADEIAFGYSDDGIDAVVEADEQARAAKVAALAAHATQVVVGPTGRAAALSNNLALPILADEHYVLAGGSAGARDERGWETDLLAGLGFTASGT
T2 sequence (P9WJN3 whole entry, looked up): as above
Chain of recombinant MshB (Rv1170) (P9WJN3 whole entry, looked up): as above

Compound: OO [H2O2, hydrogen peroxide]
- IC50 [1]: 1000 µM
- Fold more sensitive to H2O2 than the parent strain [2]: 12 fold
- Sensitivity to peroxide versus the parent strain [3]: three-fold more sensitive
- IC50 ([3]; read-out: H2O2 IC50): 3500 µM
- IC50 [4]: 1800 µM
- IC50 [5]: 12000 µM
- Fold more sensitive to H2O2 than the parent strain [6]: > 20 fold
- IC50 ([6]; read-out: H2O2 IC50): 500 µM

Compound: superoxide
- Killing by superoxide [7]: no significant killing
- Killing by superoxide [8]: intermediate level of killing
- Killed by superoxide [9]: > 90%

Compound: CC(=O)N[C@@H](CS)C(=O)N[C@H]1[C@@H](OC2[C@H](O)[C@H](O)C(O)[C@H](O)[C@H]2O)O[C@H](CO)[C@@H](O)[C@@H]1O (stereo partly drawn) [MSH, 1-D-myo-inosityl-2-(N-acetylcysteinyl)amido-2-deoxy-α-D-glucopyranoside]
- Relative Rate (amidase reaction) [10]: 0.0043
- Amidase Specific Activity ([10]; pH 7.4): 0.3 ± 0.1 nmol/min/mg
- Concentration that completely inhibits the amidase activity [11]: over 1 mM
- Inhibition of the amidase activity [11]: effective inhibitor
- Relative Rate (deacetylase reaction) [12]: <0.00036
- Substrate quality for the deacetylase activity [12]: not substrates
- Deacetylase Specific Activity [12]: <0.025 ± 0.012 nmol/min/mg
- Inhibition of the deacetylase activity [13]: effective inhibitor

Compound: c1cnc2c(c1)ccc1cccnc12 [1,10-phenanthroline]
- Inhibition of the deacetylase reaction [14]: substantially inhibited; also recorded: completely inhibited

Compound: CC(=O)N[C@H]1C(O)O[C@H](CO)[C@@H](O)[C@@H]1O (stereo partly shown) [GlcNAc, N-acetylglucosamine]
- MSH found in cells [15]: No significant MSH
- Fold less active than GlcNAc-Ins as deacetylase substrate [12]: 44 fold
- Relative Rate (deacetylase reaction) [12]: 0.023
- Deacetylase Specific Activity [12]: 1.6 ± 1 nmol/min/mg

Compound: N[C@H]1C(O)O[C@H](CO)[C@@H](O)[C@@H]1O (stereo partly shown) [glucosamine]
- MSH found in cells [15]: No significant MSH

Compound: O[C@H]1[C@H](O)[C@@H](O)[C@H](O)[C@@H](O)[C@H]1O [inositol]
- MSH found in cells [15]: No significant MSH

Compound: N[C@@H](CCC(=O)N[C@@H](CS)C(=O)NCC(=O)O)C(=O)O [glutathione]
- Inhibition of the amidase activity [11]: lack of inhibition
- Inhibition of the deacetylase activity [13]: lack of inhibition
